Results published in the NIST ThermoML archive (doi:10.1021/je700288s).
Where “and” joins values, the source holds several entries; their conditions need not be identical. Identical values can stand only once. ± gives the expanded uncertainty stated by the source.

Key:
[1] = 283.15 K; 101 kPa; Liquid; Vibrating tube method
[2] = mn = molality of the nth substance listed, in mol/kg; settings: 101 kPa, Liquid; for speed of sound: Sing-around technique in a fixed-path interferometer; for mass density: Vibrating tube method

O [water]
Settings	mass density [kg/m3]
[1]	999.699 ± 0.1

C[C@H](N)C(=O)O [(S)-2-aminopropanoic acid] + O
[2]
Settings	mass density, m1 = 0.23	mass density, m1 = 0.47	mass density, m1 = 0.72	speed of sound, m1 = 0.23	speed of sound, m1 = 0.47	speed of sound, m1 = 0.72
283.15 K	1006.29 ± 0.12 kg/m3 and 1006.34 ± 0.12 kg/m3	1012.74 ± 0.13 kg/m3 and 1012.69 ± 0.13 kg/m3	1018.71 ± 0.14 kg/m3 and 1019.09 ± 0.14 kg/m3	1464.4 ± 1.1 m/s and 1464.1 ± 1.1 m/s	1480.4 ± 1.1 m/s and 1480.5 ± 1.1 m/s	1496.7 ± 1.2 m/s and 1495.8 ± 1.2 m/s
288.15 K	1005.65 ± 0.12 kg/m3 and 1005.61 ± 0.12 kg/m3	1011.96 ± 0.13 kg/m3 and 1011.92 ± 0.13 kg/m3	1017.87 ± 0.14 kg/m3 and 1018.24 ± 0.14 kg/m3	1482 ± 1.1 m/s and 1481.8 ± 1.1 m/s	1497.6 ± 1.1 m/s and 1497.4 ± 1.1 m/s	1512.2 ± 1.2 m/s and 1513 ± 1.2 m/s
293.15 K	1004.68 ± 0.12 kg/m3 and 1004.64 ± 0.12 kg/m3	1010.93 ± 0.13 kg/m3 and 1010.89 ± 0.13 kg/m3	1016.77 ± 0.14 kg/m3 and 1017.14 ± 0.14 kg/m3	1497.7 ± 1.1 m/s and 1497.4 ± 1.1 m/s	1512.4 ± 1.1 m/s and 1512.6 ± 1.1 m/s	1527.5 ± 1.2 m/s and 1526.7 ± 1.2 m/s
298.15 K	1003.46 ± 0.12 kg/m3 and 1003.43 ± 0.12 kg/m3	1009.62 ± 0.13 kg/m3 and 1009.66 ± 0.13 kg/m3	1015.82 ± 0.14 kg/m3 and 1015.45 ± 0.14 kg/m3	1511.4 ± 1.1 m/s and 1511.1 ± 1.1 m/s	1525.6 ± 1.1 m/s and 1525.8 ± 1.1 m/s	1540.1 ± 1.2 m/s and 1539.4 ± 1.2 m/s
303.15 K	1001.98 ± 0.12 kg/m3 and 1002.01 ± 0.12 kg/m3	1008.13 ± 0.13 kg/m3 and 1008.17 ± 0.13 kg/m3	1014.29 ± 0.14 kg/m3 and 1013.92 ± 0.14 kg/m3	1523.3 ± 1.1 m/s and 1523.1 ± 1.1 m/s	1537.1 ± 1.1 m/s and 1537.2 ± 1.1 m/s	1551 ± 1.2 m/s and 1550.3 ± 1.2 m/s
308.15 K	1000.33 ± 0.12 kg/m3 and 1000.36 ± 0.12 kg/m3	1006.44 ± 0.13 kg/m3 and 1006.48 ± 0.13 kg/m3	1012.57 ± 0.14 kg/m3 and 1012.19 ± 0.14 kg/m3	1533.6 ± 1.1 m/s and 1533.3 ± 1.1 m/s	1546.9 ± 1.1 m/s and 1547 ± 1.1 m/s	1560.4 ± 1.2 m/s and 1559.7 ± 1.2 m/s
